In patent US7115632B1, “Sulfonyl aryl or heteroaryl hydroxamic acid compounds” (priority 1999, dated 2006):
Where a name gives a salt, the structure may show the parent alone.

Assays:
MMP-1 = molecular target: T1, MMP-1 (Homo sapiens, UniProt P03956); test: In vitro metalloprotease inhibition, fluorogenic MCA peptide substrate; type: biochemical; details: Inhibition Table B
T1 construct: made in house; host or cells: transfected HT-1080 cells (provided by Dr. Harold Welgus, Washington University)
T1 sequence (P03956 100-469): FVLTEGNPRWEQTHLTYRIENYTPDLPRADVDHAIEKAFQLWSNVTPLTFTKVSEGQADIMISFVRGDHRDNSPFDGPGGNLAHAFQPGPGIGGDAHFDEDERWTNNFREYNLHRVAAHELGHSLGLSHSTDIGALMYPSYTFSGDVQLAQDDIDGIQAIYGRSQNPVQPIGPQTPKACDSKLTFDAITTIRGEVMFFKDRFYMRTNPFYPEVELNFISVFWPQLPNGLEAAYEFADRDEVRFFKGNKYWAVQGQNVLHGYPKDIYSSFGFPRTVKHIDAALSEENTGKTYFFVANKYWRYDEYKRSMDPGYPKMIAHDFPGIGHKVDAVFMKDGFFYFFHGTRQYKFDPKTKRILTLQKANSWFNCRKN
Text: (§5) The expressed enzyme was purified first over a heparin agarose column and then over a chelating zinc chloride column. The proenzyme was activated by APMA for use in the assay.

MMP-2 = molecular target: T2, MMP-2 (Homo sapiens, UniProt P08253); test: as above; type: biochemical; details: Inhibition Table B
T2 construct: made in house; provided by Dr. Gregory Goldberg, Washington University
T2 sequence (P08253 110-660): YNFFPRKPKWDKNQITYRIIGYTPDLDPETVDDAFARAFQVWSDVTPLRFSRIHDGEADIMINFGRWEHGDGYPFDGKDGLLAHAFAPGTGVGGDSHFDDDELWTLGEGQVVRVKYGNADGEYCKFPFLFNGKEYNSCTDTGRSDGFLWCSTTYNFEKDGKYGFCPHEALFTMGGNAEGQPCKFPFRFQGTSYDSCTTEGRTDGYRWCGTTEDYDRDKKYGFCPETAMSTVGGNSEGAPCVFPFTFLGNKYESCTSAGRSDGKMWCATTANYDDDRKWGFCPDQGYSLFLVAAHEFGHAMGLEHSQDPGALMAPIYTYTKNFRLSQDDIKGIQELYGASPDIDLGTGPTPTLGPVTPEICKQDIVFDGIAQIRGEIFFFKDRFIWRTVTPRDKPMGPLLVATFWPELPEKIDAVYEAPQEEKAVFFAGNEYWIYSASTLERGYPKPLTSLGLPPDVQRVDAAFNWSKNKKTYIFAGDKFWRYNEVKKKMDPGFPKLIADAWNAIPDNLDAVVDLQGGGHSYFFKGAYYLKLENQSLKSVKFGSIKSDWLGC
Text: as §5

MMP-13 = molecular target: T3, MMP-13 (Homo sapiens, UniProt P45452); test: as above; type: biochemical; details: Inhibition Table B
T3 construct: made in house; host or cells: insect cells, baculovirus expression
Text: as §5

MMP-3 = MMP-3 (Homo sapiens, UniProt P08254); test: as above; type: biochemical; details: Inhibition Table B
MMP-8 = MMP-8 (Homo sapiens, UniProt P22894); test: as above; type: biochemical; details: Inhibition Table B
Protocol: (§1) Briefly, 4-aminophenylmercuric acetate (APMA) or trypsin-activated MMPs were incubated with various concentrations of the inhibitor compound at room temperature for 5 minutes.
(§2) MCA-ProLeuGlyLeuDpaAlaArgNH2, wherein MCA is methoxycoumarin and Dpa is 3-(2,4-dinitrophenyl)-L-2,3-diaminopropionyl alanine.
(§3) The buffer used for assays contained 100 mM Tris-HCl, 100 mM NaCl, 10 mM CaCl2 and 0.05 percent polyethyleneglycol (23) lauryl ether at a pH value of 7.5.
(§4) The ID50 values were calculated from those values.

MT1-MMP = MT1-MMP (Homo sapiens, UniProt P50281); test: as above; type: biochemical; details: Inhibition Table B
Protocol: as §1, §2, §3, §4

MMP-9 = molecular target: T4, MMP-9 (Homo sapiens, UniProt P14780); test: as above; type: biochemical; details: Inhibition Table B
T4 construct: made in house; host or cells: transfected HT-1080 cells (provided by Dr. Harold Welgus)
Protocol: as §1
MMP-1 expressed in transfected HT-1080 cells was provided by Dr. Harold Welgus of Washington University, St. Louis, Mo. The enzyme was also activated using APMA and was then purified over a hydroxamic acid column. Dr. Welgus also provided transfected HT-1080 cells that expressed MMP-9. Transfected cells that expressed MMP-2 were provided by Dr. Gregory Goldberg, also of Washington University. Further specifics for preparation and use of these enzymes can be found in the scientific literature describing these enzymes. See, for example, Enzyme Nomenclature, Academic Press, San Diego, Calif. (1992) and the citations therein, and Frije et al., J. Biol. Chem., 26(24): 16766–16773 (1994).
as §2, §3, §4

[1] = tested on: solid tumor cancers (colorectal, pancreatic, ovarian, prostate); details: cited from earlier work

T4 sequence (P14780 107-707 limits assumed): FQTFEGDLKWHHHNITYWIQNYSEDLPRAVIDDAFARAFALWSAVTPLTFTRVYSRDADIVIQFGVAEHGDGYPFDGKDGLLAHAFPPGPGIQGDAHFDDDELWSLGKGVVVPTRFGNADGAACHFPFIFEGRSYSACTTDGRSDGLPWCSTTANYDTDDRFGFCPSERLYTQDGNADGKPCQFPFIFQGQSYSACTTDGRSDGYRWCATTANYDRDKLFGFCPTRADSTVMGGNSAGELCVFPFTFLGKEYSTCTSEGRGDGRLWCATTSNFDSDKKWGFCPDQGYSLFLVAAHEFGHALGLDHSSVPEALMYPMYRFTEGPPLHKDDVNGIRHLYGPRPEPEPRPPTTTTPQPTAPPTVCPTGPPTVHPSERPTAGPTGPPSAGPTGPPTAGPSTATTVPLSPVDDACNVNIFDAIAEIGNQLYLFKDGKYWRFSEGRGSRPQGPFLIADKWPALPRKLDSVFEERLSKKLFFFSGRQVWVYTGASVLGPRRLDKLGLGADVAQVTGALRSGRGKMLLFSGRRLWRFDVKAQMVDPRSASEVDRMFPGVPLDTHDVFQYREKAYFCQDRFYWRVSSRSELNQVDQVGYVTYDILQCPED
Sequence of MMP-3 (P08254 100-477, species assumed): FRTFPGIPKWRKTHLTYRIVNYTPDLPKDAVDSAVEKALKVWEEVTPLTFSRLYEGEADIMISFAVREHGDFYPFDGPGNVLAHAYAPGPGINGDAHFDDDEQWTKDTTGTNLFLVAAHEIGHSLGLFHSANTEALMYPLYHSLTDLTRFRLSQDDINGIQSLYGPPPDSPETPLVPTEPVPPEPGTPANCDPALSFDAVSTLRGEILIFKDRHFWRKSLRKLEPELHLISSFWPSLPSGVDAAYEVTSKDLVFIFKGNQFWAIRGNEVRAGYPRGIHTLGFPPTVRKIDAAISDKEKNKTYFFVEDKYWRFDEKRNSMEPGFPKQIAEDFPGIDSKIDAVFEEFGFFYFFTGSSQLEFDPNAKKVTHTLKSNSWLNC
Sequence of MMP-8 (P22894 101-467, species assumed): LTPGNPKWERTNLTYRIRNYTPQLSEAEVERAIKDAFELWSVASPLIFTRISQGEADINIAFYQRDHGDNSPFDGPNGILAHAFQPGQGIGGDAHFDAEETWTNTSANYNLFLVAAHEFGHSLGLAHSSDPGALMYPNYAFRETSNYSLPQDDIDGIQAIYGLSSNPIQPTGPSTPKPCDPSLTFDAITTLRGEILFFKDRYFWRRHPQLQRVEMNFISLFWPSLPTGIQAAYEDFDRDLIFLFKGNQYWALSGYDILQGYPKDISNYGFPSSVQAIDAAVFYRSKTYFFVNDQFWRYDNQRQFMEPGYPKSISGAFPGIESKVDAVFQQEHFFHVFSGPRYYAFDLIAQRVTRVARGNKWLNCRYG

Structure (SMILES)	IC50 (MMP-1) [nM]	IC50 (MMP-2) [nM]	IC50 (MMP-13) [nM]	IC50 (MMP-3) [nM]	IC50 (MMP-8) [nM]	IC50 (MT1-MMP) [nM]	IC50 (MMP-9) [nM]	most common drug-related toxicity ([1]; clinical trials, patients)	rise of cancer-specific antigens (surrogate markers for biological activity) ([1]; patients with advanced, rapidly progressive, treatment-refractory solid tumor cancers)
COc1ccc(S(=O)(=O)N2CCC(Oc3ccc4c(c3)OCO4)CC2)c(C(=O)NO)c1OC [Example 50, 6-[[4-(1,3-Benzodioxole-5-yloxy)-1-piperinyl]sulfonyl]-N-hydroxy-2,3-dimethoxybenzamide]	> 10000	1.1	18.6	1300	12.2	270	9		
COc1ccc(S(=O)(=O)N2CCC(Oc3ccc(OC(F)(F)F)cc3)CC2)c(C(=O)NO)c1OC [Example 33]	> 10000	0.9	5	100		360	1.5		
O=C(NO)c1c(S(=O)(=O)N2CCC(Oc3ccc(C(F)(F)F)cc3)CC2)ccc2c1OCO2 [Example 36]	> 10000	3	18	600	12.2	300	8		
COc1ccc(N2CCN(S(=O)(=O)c3ccc(OC)c(OC)c3C(=O)NO)CC2)cc1 [Example 41, N-Hydroxy-2,3-dimethoxy-6-[[4-(4-methoxyphenyl)-1-piperazinyl]sulfonyl]benzamide, monohydrochloride]	> 10000	6	100	8000	120	4000	470		
COc1ccc(S(=O)(=O)N2CCC(Sc3ccccc3)CC2)c(C(=O)NO)c1OC [Example 24, N-Hydroxy-2,3-dimethoxy-6-[[4-(phenylthio)-1-piperidinyl]sulfonyl]benzamide]	> 10000	0.9	3	400	10.7	25.4	10		
COc1ccc(OC2CCN(S(=O)(=O)c3ccc(OC)c(OC)c3C(=O)NO)CC2)cc1 [Example 45]	> 10000	1.8	13.9	900	11.4	300	3		
CCOc1ccccc1-c1ccc(OC2CCN(S(=O)(=O)c3ccc(OC)c(OC)c3C(=O)NO)CC2)cc1 [Example 40]		80	50		4400				
COc1ccc(S(=O)(=O)N2CCN(c3ccc(C(F)(F)F)cc3)CC2)c(C(=O)NO)c1OC [Example 26, N-Hydroxy-2,3-dimethoxy-6-[[4-[4-(trifluoromethyl)phenyl]-1-piperazinyl]sulfonyl]benzamide]	> 10000	6.5	40	1750	37.2	1920	970		
COc1ccccc1-c1ccc(OC2CCN(S(=O)(=O)c3ccc(OC)c(OC)c3C(=O)NO)CC2)cc1 [Example 22]		15.5	5.5	170	800	2500	300		
CNC(=O)[C@@H](NC(=O)[C@H](CC(C)C)[C@H](O)C(=O)NO)C(C)(C)C [marimastat, Marimastat]								musculoskeletal pain and stiffness	dose-related reduction in the rise of cancer-specific antigens
COc1ccc(S(=O)(=O)N2CCC(Oc3ccc(-c4ccccc4C(F)(F)F)cc3)CC2)c(C(=O)NO)c1OC [Example 38, N-Hydroxy-2,3-dimethoxy-6-[[4-[[2′-(trifluoromethyl)[1,1′-biphenyl]-4-yl]oxy]-1-piperidinyl]sulfonyl]benzamide]		20	82		1700				
COc1ccc(S(=O)(=O)N2CCN(Cc3ccccc3)CC2)c(C(=O)NO)c1OC [Example 52, N-Hydroxy-2,3-dimethoxy-6-[[4-(phenylmethyl)-1-piperazinyl]sulfonyl]benzamide, monohydrochloride]		1500	4000		> 10000				
CCCCOc1ccc(OC2CCN(S(=O)(=O)c3ccc(OC)c(OC)c3C(=O)NO)CC2)cc1 [Example 54, 6-[[4-(4-Butoxyphenoxy)-1-piperidinyl]sulfonyl]-N-hydroxy-2,3-dimethoxybenzamide]	> 10000	0.8	1.6	31.6	70	200	2		
COc1ccc(S(=O)(=O)N2CCC(Oc3ccc(-c4cccc(C(F)(F)F)c4)cc3)CC2)c(C(=O)NO)c1OC [Example 27, N-Hydroxyl-2,3-dimethoxy-6-[[4-[[3′-(trifluoromethyl)[1,1′-biphenyl]-4-yl]oxy]-1-piperidinyl]sulfonyl]benzamide]	> 10000	3.3	3	300	210	690	520		
